In patent publication US7214495B2, “Screening method” (Takeda Pharmaceutical Company Limited, priority 2002, dated 2007):

Target: T1, human-derived GPR40 (Homo sapiens, UniProt O14842)
T1 construct: The DNA fragment encoding human GPR40 was acquired by the following PCR procedures; expressed in transfected cells; host or cells: CHO-K1 (transient, Lipofectamine)
Experiment: Intracellular calcium change (FLIPR) in CHO-K1 cells transiently expressing GPR40
Format: cell-based
Conditions: added in 10^−5 M to 10^−6 M; no response in vector-only control cells
Experimental: The CHO-K1 cell line was cultured in HAM F-12 medium (Invitrogen) containing 10% fetal calf serum (Invitrogen), unless otherwise indicated. One day before transfection, 4.5×10^5 cells per 10 cm^2 were plated, followed by incubation in a CO2 incubator adjusted to a concentration of 5% CO2 at 37° C. for at least 15 hours. Using Lipofectamine reagent (Invitrogen), transfection procedures were carried out by modifications of the method attached to the reagent. When a 6-well plate was used for the incubator, the following procedures were performed. First, 2 tubes each having a 1.5 ml volume were prepared and 100 μl each of Opti-MEM-I medium (Invitrogen) was dispensed in each tube. Next, 1 μg of the expression vector was charged in one tube and in another tube, 6 μl of Lipofectamine reagent was charged, which were mixed together. The mixture was settled for 20 minutes at room temperature. To the solution, 800 μl of Opti-MEM-I medium was added and the resulting solution mixture for transfection was added to CHO-K1 cells, which had been previously washed with Opti-MEM-I medium. Then, the cells were incubated in a CO2 incubator for 6 hours. After the incubation, the cells were rinsed with PBS (Invitrogen), then scraped using 0.05% trypsin-EDTA solution (Invitrogen) and recovered by centrifugal operation. The cells obtained were counted and diluted to 5×10^4 cells per 200 μl of the medium. The dilution was dispensed onto a Black walled 96-well plate (Costar) in 200 μl each per well, followed by incubation overnight in a CO2 incubator. Various test samples were added to the CHO-K1 cells in which the receptor was transiently expressed by the transfection operation described above, whereby changes in the intracellular calcium ion level were determined using FLIPR (Molecular Device). In order to determine the changes in the intracellular calcium ion level on FLIPR, the cells were pre-treated by the following procedures. First, for the purpose of adding a fluorescent dye Fluo-3 AM (DOJIN) to the cells or washing the cells immediately before the FLIPR assay, an assay buffer was prepared. A solution obtained by adding 20 ml of 1M HEPES (pH 7.4) (DOJIN) to 1000 ml of HBSS (Invitrogen) was prepared (hereinafter HBSS/HEPES solution), to which 10 ml of a solution mixture obtained by dissolving 710 mg of Probenecid (Sigma) in 5 ml of 1N NaOH and further adding 5 ml of HBSS/HEPES solution was added. The resulting solution was used as the assay buffer. Next, 50 μg of Fluo-3AM was dissolved in 21 μl of DMSO (DOJIN) and an equal volume of 20% Pulronic acid (Molecular Probes) was added to and mixed with the solution. The mixture was then added to 10.6 ml of the assay buffer supplemented with 105 μl of fetal calf serum to prepare a fluorescent dye solution. The medium for the transfection-treated CHO-K1 cells was removed. Immediately thereafter, the fluorescent dye solution was dispensed in 100 μl each/well and the cells were incubated in a CO2 incubator for an hour so that the fluorescent dye was taken up into the cells. The cells after the incubation was washed with the assay buffer described above and set on FLIPR. A test sample added to the receptor-expressed CHO-K1 cells was prepared using the assay buffer and set on FLIPR at the same time. After various test samples were added thereto.
Following the pre-treatment above, changes in intracellular calcium level after addition of various test samples were measured on FLIPR.

T1 sequence (O14842 whole entry, the tested form may be a part): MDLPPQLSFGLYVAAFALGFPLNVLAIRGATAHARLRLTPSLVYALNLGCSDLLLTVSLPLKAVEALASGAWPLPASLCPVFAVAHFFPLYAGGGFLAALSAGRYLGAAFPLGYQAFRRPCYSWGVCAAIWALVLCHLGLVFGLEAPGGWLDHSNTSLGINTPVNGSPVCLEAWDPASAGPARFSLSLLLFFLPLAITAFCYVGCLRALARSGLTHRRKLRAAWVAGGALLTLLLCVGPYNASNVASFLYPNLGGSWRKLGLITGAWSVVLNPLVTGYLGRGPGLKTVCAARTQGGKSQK

Compound	response (increase in intracellular calcium level) of GPR40-expressing CHO-K1 cells
CCCCCCCCC#CCC#CCC#CCCCC(=O)O [5.8.11-eicosatriynoic acid]	specifically responsive
CCCCCC#CCC#CCC#CCC#CCCCC(=O)O [5.8.11.14-eicosatetraynoic acid]	specifically responsive
CCCCCCCCCCCC(=O)O [Lauric acid (C12), Lauric acid]	specifically responsive
CCCCC/C=C\C/C=C\C/C=C\C/C=C\CCCCCC(=O)O [adrenic acid]	specifically responsive
CC(C)=CCCC(C)=CCCC(C)=CC(=O)O [farnesoic acid]	specifically responsive
docosatrienoic acid	specifically responsive
eicosadienoic acid	specifically responsive
eicosatrienoic acid	specifically responsive

System: mouse pancreatic β cell line MIN6
Experiment: Insulin secretion from MIN6 in KRBH buffer (immunoassay)
Format: cell-based
Conditions: 22 mM glucose KRBH, 90 minutes
Experimental: The mouse pancreatic β cell line MIN6 incubated in a flask was scraped in PBS containing 2.5 mM EDTA and plated in a 96-well plate followed by incubation for 2 days. The medium used was the same as in EXAMPLE 24, namely, 4.5 g/l of glucose-containing Dulbecco's Modified Eagle Medium (DMEM, Invitrogen, Inc.) supplemented with 15% fetal calf serum (ThermoTrace, Inc.), 5.5 μM 2-mercaptethanol (Invitrogen, Inc.), 20 mM HEPES pH 7.3, 100 U/ml penicillin and 100 μg/ml streptomycin. The cells were washed twice with modified Krebs-Ringer bicarbonate buffer (KRBH, 116 mM NaCl, 4.7 mM KCl, 1.2 mM KH2PO4, 1.2 mM MgSO4, 2.5 mM CaCl2, 25 mM NaHCO3, 24 mM HEPES, pH 7.3), followed by preincubation at 37° C. in 5% CO2 for 30 minutes. The fatty acid diluted/prepared using the aforesaid KRBH buffer added with 22 mM glucose was added to the cells after the preincubation, followed by incubation under the conditions of 37° C. in 5% CO2 for 90 minutes. After the incubation, the supernatant of the cells was recovered and stored in a frozen state. The insulin content in the supernatant was assayed using an insulin immunoassay kit commercially available (Amersham Pharmacia, Inc.).
Based on the method of EXAMPLE 25, effects of glucose level when added with fatty acids were examined. The level of glucose, which was added to KRBH upon the addition of fatty acids, was varied to 0, 5.5, 11 and 22 mM to study the effects.
The insulin secretion enhancing activity in the m40i103-introduced MIN6 cells using HVJ Envelope VECTOR KIT GenomONE based on the method of EXAMPLE 18 was examined. The insulin secretion enhancing activity by fatty acids was examined according to the method of EXAMPLE 25.
Based on the procedures of EXAMPLE 25, an essential prerequisite of Ca^2+ ions in the extracellular fluid was examined. In preincubation and incubation with a sample, Ca^2+ ions were removed and 0.1 mM EGTA, which was a reagent for chelating Ca^2+ ions, was further added, and then the insulin secretion enhancing activity by fatty acids was examined in this case.
Based on the method of EXAMPLE 25, effects of Ca^2+ channel blocker (Nifedipine) and MAP kinase inhibitor (PD98059) were examined. In preincubation and incubation with a sample, the insulin secretion enhancing activity by fatty acids was examined when Nifedipine (10 μM) or PD98059 (50 μM) was added.
It is known that fatty acids have the property of binding to albumin. Based on the method of EXAMPLE 25, effects were examined when bovine serum albumin (BSA) was present. In preincubation and incubation with a sample, the insulin secretion activity by fatty acids was examined when 0.1% BSA was added to the buffer.

Compound	insulin secretion enhancing activity
CCCC(=O)O [Butyric acid (C4), Butyric acid]	did not show any significant insulin secretion enhancing activity

Target: T2, human GPR40 (Homo sapiens, UniProt O14842)
T2 construct: The resulting fragment (ca. 1 kb) was introduced into vector pAKKO-111, which was used for transfection of CHO cells; expressed in transfected cells
Experiment: EC50 by FLIPR calcium assay in CHO cells stably expressing human GPR40
Format: cell-based
Conditions: intracellular calcium, FLIPR, stable CHO line
Experimental: (§1) For determination of EC50 values, the CHO cell lines in which human-, mouse- and rat-derived GPR40 was stably expressed were used. Unless otherwise indicated, these CHO cell lines were incubated in α-MEM medium (Invitrogen) supplemented with 10% fetal calf serum (Invitrogen).
(§2) On the day before assay, the cells incubated to almost confluent stage were rinsed with PBS (Invitrogen), then scraped in 0.05% trypsin-EDTA solution (Invitrogen) and recovered by centrifugal operation. The number of the cells obtained was counted and diluted so as to contain 3×10^5 cells/1 mL of the medium. The dilution was dispensed in a Black welled 96-well plate (Coster) in 100 μL/well, followed by incubation overnight in a CO2 incubator. To the thus prepared CHO cells, various test samples were added and the changes in intracellular calcium level in this case were measured using FLIPR (Molecular Device). In order to determine the changes in the intracellular calcium ion level on FLIPR, the cells were pre-treated by the following procedures.
(§3) First, for the purpose of adding a fluorescent dye Fluo-3 AM (DOJIN) to the cells or washing the cells immediately before the FLIPR assay, an assay buffer was prepared. A solution obtained by adding 20 mL of 1M HEPES (pH 7.4) (DOJIN) to 1000 mL of HBSS (Invitrogen) was prepared (hereinafter HBSS/HEPES solution), to which 10 mL of a solution mixture obtained by dissolving 710 mg of Probenecid (Sigma) in 5 mL of 1N NaOH and further adding 5 mL of HBSS/HEPES solution was added. The resulting solution was used as the assay buffer. Next, 50 μg of Fluo-3AM was dissolved in 21 μL of DMSO (Wako) and an equal volume of 20% Pulronic acid (Molecular Probes) was added to and mixed with the solution. The mixture was then added to 10.6 mL of the assay buffer supplemented with 105 μL of fetal calf serum to prepare a fluorescent dye solution. […], the medium for the CHO cells again plated in a Black welled 96-well plate was removed. Immediately thereafter, the fluorescent dye solution was dispensed in 100 μL each/well and the cells were incubated in a CO2 incubator for an hour so that the fluorescent dye was taken up into the cells. The cells after the incubation was washed with the assay buffer described above and set on FLIPR. […] After the pre-treatment above was made, the changes in intracellular calcium level after the addition of various test samples were measured on FLIPR.

T2 sequence (O14842 whole entry, the tested form may be a part): as above

EC50 Human GPR40	Compound
inactive	CCCC(=O)O [Butyric acid (C4), Butyric acid]

Same assay, conditions: intracellular calcium, FLIPR, stable CHO line; read-out: EC50 Human GPR40

EC50	Compound
5.7 ± 1.4 µM	CCCCCCCCCCCC(=O)O [Lauric acid (C12), Lauric acid]

Target: T3, Mouse GPR40 (Mus musculus, UniProt Q76JU9)
T3 construct: expressed in transfected cells
Experiment: EC50 by FLIPR calcium assay in CHO cells stably expressing mouse GPR40
Format: cell-based
Conditions: intracellular calcium, FLIPR, stable CHO line
Experimental: as §1, §2, §3

T3 sequence (Q76JU9 whole entry): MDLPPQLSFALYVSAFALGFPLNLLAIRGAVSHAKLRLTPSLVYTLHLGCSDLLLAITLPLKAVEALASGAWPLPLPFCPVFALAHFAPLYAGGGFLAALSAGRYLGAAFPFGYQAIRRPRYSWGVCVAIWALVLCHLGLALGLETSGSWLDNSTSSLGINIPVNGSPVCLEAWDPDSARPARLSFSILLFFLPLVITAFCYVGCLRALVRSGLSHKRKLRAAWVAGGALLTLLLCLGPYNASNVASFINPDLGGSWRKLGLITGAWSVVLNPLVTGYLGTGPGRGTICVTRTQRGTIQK

EC50 Mouse GPR40	Compound
inactive	CCCC(=O)O [Butyric acid (C4), Butyric acid]

Same assay, conditions: intracellular calcium, FLIPR, stable CHO line; read-out: EC50 Mouse GPR40

EC50	Compound
5.6 ± 1.6 µM	CCCCCCCCCCCC(=O)O [Lauric acid (C12), Lauric acid]

Target: T4, Rat GPR40 (Rattus norvegicus, UniProt Q8K3T4)
T4 construct: expressed in transfected cells
Experiment: EC50 by FLIPR calcium assay in CHO cells stably expressing rat GPR40
Format: cell-based
Conditions: intracellular calcium, FLIPR, stable CHO line
Experimental: as §1, §2, §3

T4 sequence (Q8K3T4 whole entry): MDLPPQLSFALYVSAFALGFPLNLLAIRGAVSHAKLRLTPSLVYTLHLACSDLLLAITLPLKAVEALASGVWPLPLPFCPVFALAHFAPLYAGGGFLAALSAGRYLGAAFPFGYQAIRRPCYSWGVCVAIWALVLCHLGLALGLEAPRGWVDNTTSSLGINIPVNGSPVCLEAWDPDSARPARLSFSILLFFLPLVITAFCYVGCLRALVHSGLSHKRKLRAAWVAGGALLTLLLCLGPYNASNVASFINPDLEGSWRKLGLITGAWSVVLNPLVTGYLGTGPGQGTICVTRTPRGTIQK

EC50 Rat GPR40	Compound
inactive	CCCC(=O)O [Butyric acid (C4), Butyric acid]

Same assay, conditions: intracellular calcium, FLIPR, stable CHO line; read-out: EC50 Rat GPR40

EC50	Compound
13 ± 3.3 µM	CCCCCCCCCCCC(=O)O [Lauric acid (C12), Lauric acid]

System: MIN6 cells
Experiment: FLIPR intracellular calcium assay using MIN6
Format: cell-based, mouse
Conditions: 10 μM fatty acid
Experimental: Mouse pancreatic β cell line MIN6 incubated in a flask was scraped using PBS containing 2.5 mM EDTA and diluted so as to contain 3×10^5 cells/1 mL of the medium. The dilution was dispensed in a Black welled 96-well plate (Coster) in 100 μL/well, followed by incubation in a CO2 incubator for 2 days. The medium used was 4.5 g/l of glucose-containing Dulbecco's Modified Eagle Medium (DMEM, Invitrogen, Inc.) supplemented with 15% fetal calf serum (ThermoTrace, Inc.), 5.5 μM 2-mercaptethanol (Invitrogen, Inc.), 20 mM HEPES pH 7.3, 100 U/ml penicillin and 100 μg/ml streptomycin. To the thus prepared MIN6 cells, various fatty acids (10 μM) were added and the changes in intracellular calcium level in this case were measured using FLIPR (Molecular Device). The changes in the intracellular calcium ion level on FLIPR were assayed in accordance with the procedures described in EXAMPLE 24.

Compound	intracellular Ca^2+ level in MIN6
CCCC(=O)O [Butyric acid (C4), Butyric acid]	not observed
